Here are results for 23 compounds from patent US20200405868A1, “GEL-FORMING POLYPEPTIDES” (priority 2018, published 2020).

The data set can be described thus: Compound gel-forming ability in water (visual inspection, tube tapping assay, tilted tube assay).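 For all read-outs here: peptides mixed with de-ionized water at about 22-25 °C, judged after 20 min by eye plus tube tapping (10 taps, moves counted) and 90° tilt mobility.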 Conditions: for Physical property at 11% w/w: 11% w/w in aqueous solution, room temperature; for gel formation at 6% w/w: 6% w/w in water; for gel formation at 11% w/w: 11% w/w in water; for gel formation at 20% w/w: 20% w/w in water; for gel formation in aqueous solution, 6% / propensity to form gels, chimeric or mutated polypeptides, 6% / propensity to form gels, wild-type counterparts, 6%: 6% w/w; for gel formation in aqueous solution, 11% / propensity to form gels, chimeric or mutated polypeptides, 11% / propensity to form gels, wild-type counterparts, 11%: 11% w/w; for gel formation at 3% w/w: 3% w/w in water. The format is physicochemical.

“Also recorded” adds a separate entry of the source. Where no end group is shown, it is not given here. [ ]: non-standard residue; d: D form. The star is where a group is joined. Palmitoyl = CCCCCCCCCCCCCCCC(=O)*

Take “IEGPTLRQWLAARA [SEQ ID NO:9, reference compound]”: for the setting “Table 1”, the “Physical property at 11% w/w” value is recorded as “SS (SS for semisolid gel)”.

With “Pal-RQSMNNFQGLRSFGCRFGTCTVQKLAHQIYQFTDKDKDNVAPRSKISPQGY-NH2 [SEQ ID NO:274]”, the “gel formation at 6% w/w” value is “semisolid gel”, the “gel formation at 11% w/w” value was “semisolid gel” and the “gel formation at 20% w/w” value is on record as “semisolid gel”. In addition, the “Physical property at 11% w/w” value (Table 1) is “SS (SS for semisolid gel)”. For the same compound, where the note is “Table 3”, the “gel formation in aqueous solution, 6%” value was “SS (SS for semisolid gel)” and the “gel formation in aqueous solution, 11%” value is reported as “SS (SS for semisolid gel)”. For the same compound, the “gel formation in aqueous solution, 20%” value (Table 3, 20% w/w) was “SS (SS for semisolid gel)”. Moreover, where the note is “Table 5”, the “propensity to form gels, chimeric or mutated polypeptides, 6%” value was “SS (An ability to form semisolid gel is represented by an SS)” and the “propensity to form gels, chimeric or mutated polypeptides, 11%” value is recorded as “SS (An ability to form semisolid gel is represented by an SS)”. Moreover, the “propensity to form gels, chimeric or mutated polypeptides, 20%” value (Table 5, 20% w/w) is listed as “SS (An ability to form semisolid gel is represented by an SS)”.

On to “SYSMEHFRWGKPVGKKRRPVKVYP-OH [SEQ ID NO:33, reference compound]”, for which the “gel formation at 11% w/w” value was “does not form gel” and the “gel formation at 20% w/w” value is reported as “does not form gel”. Under “Table 1”, the “Physical property at 11% w/w” value is listed as “AS/IS”. Under “Table 3”, the “gel formation in aqueous solution, 11%” value was “AS/IS (AS/IS for aqueous solution or insoluble)”. The “gel formation in aqueous solution, 20%” value (Table 3, 20% w/w) was “AS/IS (AS/IS for aqueous solution or insoluble)”. The “propensity to form gels, wild-type counterparts, 11%” value (Table 5) was “AS/IS”. In addition, the “propensity to form gels, wild-type counterparts, 20%” value (Table 5, 20% w/w) was “AS/IS”.

As for “(D-Nal)-(D-Cpa)-(D-Pal)-SY-(D-Cit)-LRP-(D-Ala)-NH2 [SEQ ID NO:27, reference compound]”, where the note is “Table 1”, the “Physical property at 11% w/w” value was “AS/IS”. In addition, the “gel formation in aqueous solution, 11%” value (Table 3) was “AS/IS (AS/IS for aqueous solution or insoluble)”. Further, the “propensity to form gels, wild-type counterparts, 11%” value (Table 5) is given as “AS/IS”.

Regarding “Pal-KVQKLSAPVDPSSPHSY-miniPEG-YNWNSFGLRF-NH2 [SEQ ID NO:208]”, the “gel formation in aqueous solution, 20%” value (Table 3, 20% w/w) is reported as “SS (SS for semisolid gel)”. Moreover, the “propensity to form gels, chimeric or mutated polypeptides, 20%” value (Table 5, 20% w/w) is given as “SS (An ability to form semisolid gel is represented by an SS)”.

Regarding “Pal-VQKLPHSY-NH2 (Palmitoyl-VQKLPHSY-NH2; SMILES CCCCCCCCCCCCCCCC(=O)N[C@H](C(=O)N[C@@H](CCC(N)=O)C(=O)N[C@@H](CCCCN)C(=O)N[C@@H](CC(C)C)C(=O)N1CCC[C@H]1C(=O)N[C@@H](Cc1c[nH]cn1)C(=O)N[C@@H](CO)C(=O)N[C@@H](Cc1ccc(O)cc1)C(N)=O)C(C)C) [SEQ ID NO:117]”, the “Physical property at 11% w/w” value (Table 2) is “SS (SS for semisolid gel)”.

Consider “Pal-VQKLVDPSSPHSY-NH2 (Palmitoyl-VQKLVDPSSPHSY-NH2; SMILES CCCCCCCCCCCCCCCC(=O)N[C@H](C(=O)N[C@@H](CCC(N)=O)C(=O)N[C@@H](CCCCN)C(=O)N[C@@H](CC(C)C)C(=O)N[C@H](C(=O)N[C@@H](CC(=O)O)C(=O)N1CCC[C@H]1C(=O)N[C@@H](CO)C(=O)N[C@@H](CO)C(=O)N1CCC[C@H]1C(=O)N[C@@H](Cc1c[nH]cn1)C(=O)N[C@@H](CO)C(=O)N[C@@H](Cc1ccc(O)cc1)C(N)=O)C(C)C)C(C)C) [SEQ ID NO:112]”, for which the “Physical property at 11% w/w” value (Table 2) was “SS (SS for semisolid gel)”.

Regarding “Pal-SSPHSY-miniPEG-RC-(D-Ala)-H-(D-Phe)-RWC-NH2. [SEQ ID NO:227]”, the “gel formation at 30% w/w” value (30% w/w in water) was “form gel”. Besides, the “gel formation in aqueous solution, 11%” value (Table 3) was “AS/IS (AS/IS for aqueous solution or insoluble)”. Moreover, the “gel formation in aqueous solution, 30%” value (Table 3, 30% w/w) is listed as “SS (SS for semisolid gel)”.

As for “[dF][dF]W[dR] [SEQ ID NO:7, reference compound]”, the “gel formation at 3% w/w” value is “semisolid gel”, the “gel formation at 6% w/w” value is recorded as “semisolid gel” and the “gel formation at 11% w/w” value is listed as “form self-assembling gels; also recorded: semisolid gel”. The “Physical property at 11% w/w” value (Table 1) is listed as “SS (SS for semisolid gel)”. Besides, for the setting “Table 3, 3% w/w”, the “gel formation in aqueous solution, 3%” value was “SS (SS for semisolid gel)”. For the same compound, under “Table 3”, the “gel formation in aqueous solution, 6%” value was “SS (SS for semisolid gel)” and the “gel formation in aqueous solution, 11%” value was “SS (SS for semisolid gel)”. Also, where the note is “Table 5, 3% w/w”, the “propensity to form gels, wild-type counterparts, 3%” value is “SS (An ability to form semisolid gel is represented by an SS)”. Also, under “Table 5”, the “propensity to form gels, wild-type counterparts, 6%” value was “SS (An ability to form semisolid gel is represented by an SS)” and the “propensity to form gels, wild-type counterparts, 11%” value is “SS (An ability to form semisolid gel is represented by an SS)”.

Take “Pal-SSPHSY-miniPEG-FLPLIGRVLSGIL-NH2 ({Palmitoyl-Ser-Ser-Pro-H2N-Ser-Tyr-miniPEG}-FLPLIGRVLSGIL-NH2) [SEQ ID NO:243]”: the “gel formation at 11% w/w” value was “semisolid gel”. Also, under “Table 3”, the “gel formation in aqueous solution, 6%” value is listed as “AS/IS (AS/IS for aqueous solution or insoluble)” and the “gel formation in aqueous solution, 11%” value is reported as “SS (SS for semisolid gel)”.

On to “DRVYIHPF-NH2 [SEQ ID NO:16, reference compound]”, for which, for the setting “Table 1”, the “Physical property at 11% w/w” value was “AS/IS”.

In the case of “miniPEG-K(PAL)GCRFGTCTVQKLAHQIYQFTDKDVAPRSKISP(D-Gln)GY-NH2 [SEQ ID NO:48]”, the “gel formation at 11% w/w” value was “semisolid gel”. Where the note is “Table 1”, the “Physical property at 11% w/w” value is listed as “SS (SS for semisolid gel)”.

Regarding “FKFEFKFE-miniPEG-RPKPQQFFGLM-NH2 [SEQ ID NO:284]”, for the setting “Table 3”, the “gel formation in aqueous solution, 6%” value is given as “AS/IS (AS/IS for aqueous solution or insoluble)” and the “gel formation in aqueous solution, 11%” value was “AS/IS (AS/IS for aqueous solution or insoluble)”.

For “KTTKS-NH2 [SEQ ID NO:43, reference compound]”, the “Physical property at 11% w/w” value (Table 1) is “AS/IS”.

In the case of “Pal-KVQKLSAPVDPSSPHSY-miniPEG-RPKPQQFFGLM-NH2 [SEQ ID NO:215]”, for the setting “Table 3”, the “gel formation in aqueous solution, 6%” value is given as “AS/IS (AS/IS for aqueous solution or insoluble)” and the “gel formation in aqueous solution, 11%” value is “SS (SS for semisolid gel)”. Under “Table 5”, the “propensity to form gels, chimeric or mutated polypeptides, 6%” value is reported as “AS/IS” and the “propensity to form gels, chimeric or mutated polypeptides, 11%” value is “SS (An ability to form semisolid gel is represented by an SS)”.

For “Pal-SSPHSY-miniPEG-HGDGSFSDEMNTILDNLAARDFINWLIQTKITD-OH [SEQ ID NO:222]”, the “gel formation at 6% w/w” value is on record as “liquid gel” and the “gel formation at 11% w/w” value is recorded as “semisolid gel”. The “gel formation in aqueous solution, 11%” value (Table 3) was “SS (SS for semisolid gel)”. Besides, the “propensity to form gels, chimeric or mutated polypeptides, 11%” value (Table 5) is reported as “SS (An ability to form semisolid gel is represented by an SS)”.

As for “FTLSLDVPTNIMNLLFNIAKAKNLRAQAAANAHLMAQI-NH2 [SEQ ID NO:10, reference compound]”, the “gel formation at 3% w/w” value is “liquid gel”, the “gel formation at 6% w/w” value is listed as “semisolid gel” and the “gel formation at 11% w/w” value is given as “semisolid gel”. For the same compound, for the setting “Table 1”, the “Physical property at 11% w/w” value is listed as “SS (SS for semisolid gel)”. In addition, the “gel formation in aqueous solution, 11%” value (Table 3) is “SS (SS for semisolid gel)”. Also, the “gel formation in aqueous solution, 20%” value (Table 3, 20% w/w) is given as “SS (SS for semisolid gel)”. Where the note is “Table 5”, the “propensity to form gels, wild-type counterparts, 6%” value is reported as “SS (An ability to form semisolid gel is represented by an SS)” and the “propensity to form gels, wild-type counterparts, 11%” value was “SS (An ability to form semisolid gel is represented by an SS)”.

With “(G1p)HWSY-(D-2Nal)-LRPG-NH2 [SEQ ID NO:15, reference compound]”, the “gel formation at 11% w/w” value is on record as “liquid gel”. Moreover, for the setting “Table 3”, the “gel formation in aqueous solution, 6%” value is reported as “AS/IS (AS/IS for aqueous solution or insoluble)”. The “propensity to form gels, wild-type counterparts, 6%” value (Table 5) is listed as “AS/IS”.

On to “Ace-KVQKLSAPVDPSSPHSY-NH2 [SEQ ID NO:115]”, for which the “Physical property at 11% w/w” value (Table 2) is “AS/IS (AS/IS for aqueous solution or insoluble)”.

Take “(D-Tyr)QWAV(β-Ala)HF(Nle)-NH2 [SEQ ID NO:20, reference compound]”: the “gel formation at 6% w/w” value was “does not form gel” and the “gel formation at 11% w/w” value is “does not form gel”. Moreover, the “Physical property at 11% w/w” value (Table 1) is “AS/IS”. In addition, where the note is “Table 3”, the “gel formation in aqueous solution, 6%” value is recorded as “AS/IS (AS/IS for aqueous solution or insoluble)” and the “gel formation in aqueous solution, 11%” value was “AS/IS (AS/IS for aqueous solution or insoluble)”. Under “Table 5”, the “propensity to form gels, wild-type counterparts, 6%” value is given as “AS/IS” and the “propensity to form gels, wild-type counterparts, 11%” value is listed as “AS/IS”.

For “Pal-KVQKLAHQIYQFTDK(Aib)SAPVDPSSPHSY-NH2 [SEQ ID NO:125]”, the “Physical property at 11% w/w” value (Table 2) was “AS/IS (AS/IS for aqueous solution or insoluble)”.

Consider “Pal-KVQKLSAPVDPSSPHSY-miniPEG-Y-(D-Met)-FHLMD-NH2 [SEQ ID NO:210]”, for which the “gel formation at 6% w/w” value is “semisolid or liquid gel” and the “gel formation at 11% w/w” value was “semisolid gel”. Moreover, for the setting “Table 3”, the “gel formation in aqueous solution, 6%” value is “SS (SS for semisolid gel)” and the “gel formation in aqueous solution, 11%” value was “SS (SS for semisolid gel)”. Moreover, under “Table 5”, the “propensity to form gels, chimeric or mutated polypeptides, 6%” value was “SS (An ability to form semisolid gel is represented by an SS)” and the “propensity to form gels, chimeric or mutated polypeptides, 11%” value is given as “SS (An ability to form semisolid gel is represented by an SS)”.

For the compound `CC[C@H](C)[C@@H]1NC(=O)[C@H](Cc2ccc(O)cc2)NC(=O)[C@@H](N)CSSC[C@@H](C(=O)N2CCC[C@H]2C(=O)N[C@@H](CC(C)C)C(=O)NCC(N)=O)NC(=O)[C@H](CC(N)=O)NC(=O)[C@H](CCC(N)=O)NC1=O` [SEQ ID NO:5, reference compound], the “gel formation at 6% w/w” value was “does not form liquid or semisolid gel” and the “gel formation at 11% w/w” value is given as “semisolid gel”. The “Physical property at 11% w/w” value (Table 1) is on record as “SS (SS for semisolid gel)”. Moreover, for the setting “Table 3”, the “gel formation in aqueous solution, 6%” value is recorded as “AS/IS (AS/IS for aqueous solution or insoluble)” and the “gel formation in aqueous solution, 11%” value is “SS (SS for semisolid gel)”. For the same compound, under “Table 5”, the “propensity to form gels, wild-type counterparts, 6%” value is listed as “AS/IS” and the “propensity to form gels, wild-type counterparts, 11%” value is “SS (An ability to form semisolid gel is represented by an SS)”. The “gel formation at the selected concentration” value (selected concentration (i.e., at 30%, 20%, 11%, or 6% w/w)) is listed as “only form aqueous solution or are insoluble”.
